Measured values reported in ChEMBL document CHEMBL1208668, “Synthesis and biological evaluation of novel spiro 6-methoxytetralin-1,3'-pyrrolidine based organoselenocyanates against cadmium-induced oxidative and hepatic damage in mice” (2010).
Active and inactive are the calls of the source. No cut-off for these calls is given here.

Assays:
[1] = system: Mus musculus; assay: Hepatoprotective activity against cadmium-induced hepatic damage in Swiss albino mouse assessed as inhibition of cadmium-induced LPO level at 3 mg/kg, po administered 7 days prior to first cadmium treatment followed by administration for 20 days concomitantly with cadmium; format: functional, organism-based; set-up: dose 3 mg/kg
[2] = system: Mus musculus; assay: Hepatoprotective activity against cadmium-induced oxidative damage in Swiss albino mouse assessed as inhibition of cadmium-induced GSH depletion at 3 mg/kg, po administered for 20 days concomitantly with cadmium; format: functional, organism-based; set-up: dose 3 mg/kg
[3] = system: Mus musculus; assay: Hepatoprotective activity against cadmium-induced oxidative damage in Swiss albino mouse assessed as inhibition of cadmium-induced GSH depletion at 3 mg/kg, po administered 7 days prior to first cadmium treatment followed by administration for 20 days concomitantly with cadmium; format: functional, organism-based; set-up: dose 3 mg/kg
[4] = system: Mus musculus; assay: Hepatoprotective activity against cadmium-induced oxidative damage in Swiss albino mouse assessed as inhibition of cadmium-induced GST activity depletion at 3 mg/kg, po administered for 20 days concomitantly with cadmium; format: functional, organism-based; set-up: dose 3 mg/kg
[5] = system: Mus musculus; assay: Hepatoprotective activity against cadmium-induced oxidative damage in Swiss albino mouse assessed as inhibition of cadmium-induced GST activity depletion at 3 mg/kg, po administered 7 days prior to first cadmium treatment followed by administration for 20 days concomitantly with cadmium; format: functional, organism-based; set-up: dose 3 mg/kg
[6] = system: Mus musculus; assay: Hepatoprotective activity against cadmium-induced oxidative damage in Swiss albino mouse assessed as inhibition of cadmium-induced SOD activity depletion at 3 mg/kg, po administered for 20 days concomitantly with cadmium; format: functional, organism-based; set-up: dose 3 mg/kg
[7] = system: Mus musculus; assay: Hepatoprotective activity against cadmium-induced oxidative damage in Swiss albino mouse assessed as inhibition of cadmium-induced SOD activity depletion at 3 mg/kg, po administered 7 days prior to first cadmium treatment followed by administration for 20 days concomitantly with cadmium; format: functional, organism-based; set-up: dose 3 mg/kg
[8] = system: Mus musculus; assay: Hepatoprotective activity against cadmium-induced hepatic damage in Swiss albino mouse assessed as inhibition of cadmium-induced elevation in serum AST level at 3 mg/kg, po administered for 20 days concomitantly with cadmium; format: functional, organism-based; set-up: dose 3 mg/kg
[9] = system: Mus musculus; assay: Hepatoprotective activity against cadmium-induced hepatic damage in Swiss albino mouse assessed as inhibition of cadmium-induced elevation in serum AST level at 3 mg/kg, po administered 7 days prior to first cadmium treatment followed by administration for 20 days concomitantly with cadmium; format: functional, organism-based; set-up: dose 3 mg/kg
[10] = system: Mus musculus; assay: Hepatoprotective activity against cadmium-induced hepatic damage in Swiss albino mouse assessed as inhibition of cadmium-induced elevation in serum ALT level at 3 mg/kg, po administered for 20 days concomitantly with cadmium; format: functional, organism-based; set-up: dose 3 mg/kg
[11] = system: Mus musculus; assay: Hepatoprotective activity against cadmium-induced hepatic damage in Swiss albino mouse assessed as inhibition of cadmium-induced elevation in serum ALT level at 3 mg/kg, po administered 7 days prior to first cadmium treatment followed by administration for 20 days concomitantly with cadmium; format: functional, organism-based; set-up: dose 3 mg/kg
[12] = system: Mus musculus; assay: Renoprotective activity against cadmium-induced renal damage in Swiss albino mouse assessed as inhibition of cadmium-induced BUN level […] at 3 mg/kg, po administered 7 days prior to first cadmium treatment followed by administration for 20 days concomitantly with cadmium; format: functional, organism-based; set-up: dose 3 mg/kg
[13] = system: Mus musculus; assay: Renoprotective activity against cadmium-induced renal damage in Swiss albino mouse assessed as inhibition of cadmium-induced creatinine level change at 3 mg/kg, po administered for 20 days concomitantly with cadmium; format: functional, organism-based; set-up: dose 3 mg/kg
[14] = system: Mus musculus; assay: Renoprotective activity against cadmium-induced renal damage in Swiss albino mouse assessed as inhibition of cadmium-induced creatinine level change at 3 mg/kg, po administered 7 days prior to first cadmium treatment followed by administration for 20 days concomitantly with cadmium; format: functional, organism-based; set-up: dose 3 mg/kg
[15] = system: Mus musculus; assay: Hepatoprotective activity against cadmium-induced hepatic damage in Swiss albino mouse assessed as ratio of liver weight to body weight at 3 mg/kg, po administered for 20 days concomitantly with cadmium; format: functional
[16] = system: Mus musculus; assay: Hepatoprotective activity against cadmium-induced hepatic damage in Swiss albino mouse assessed as inhibition of cadmium-induced LPO level at 3 mg/kg, po administered for 20 days concomitantly with cadmium bt TBARS assay; format: functional, organism-based; set-up: dose 3 mg/kg
[17] = system: Mus musculus; assay: Hepatoprotective activity against cadmium-induced oxidative damage in Swiss albino mouse assessed as inhibition of cadmium-induced CAT activity depletion at 3 mg/kg, po administered for 20 days concomitantly with cadmium; format: functional, organism-based; set-up: dose 3 mg/kg
[18] = system: Mus musculus; assay: Hepatoprotective activity against cadmium-induced oxidative damage in Swiss albino mouse assessed as inhibition of cadmium-induced CAT activity depletion at 3 mg/kg, po administered 7 days prior to first cadmium treatment followed by administration for 20 days concomitantly with cadmium; format: functional, organism-based; set-up: dose 3 mg/kg
[19] = system: Mus musculus; assay: Renoprotective activity against cadmium-induced renal damage in Swiss albino mouse assessed as inhibition of cadmium-induced BUN level […] at 3 mg/kg, po administered for 20 days concomitantly with cadmium; format: functional, organism-based; set-up: dose 3 mg/kg
[20] = system: Mus musculus; assay: Hepatoprotective activity against cadmium-induced hepatic damage in Swiss albino mouse assessed as ratio of liver weight to body weight at 3 mg/kg, po administered 7 days prior to first cadmium treatment followed by administration for 20 days concomitantly with cadmium; format: functional
[21] = system: Mus musculus; assay: Hepatoprotective activity against cadmium-induced hepatic damage in Swiss albino mouse assessed as inhibition of cadmium-induced liver necrosis and inflammation at 3 mg/kg, po administered 7 days prior to first cadmium treatment followed by administration for 20 days concomitantly with cadmium; format: functional, organism-based; set-up: dose 3 mg/kg
[22] = system: Mus musculus; assay: Hepatoprotective activity against cadmium-induced hepatic damage in Swiss albino mouse assessed as inhibition of cadmium-induced liver necrosis and inflammation at 3 mg/kg, po administered for 20 days concomitantly with cadmium; format: functional, organism-based; set-up: dose 3 mg/kg

Compound	inhibition [1]	inhibition [2]	inhibition [3]	inhibition [4]	inhibition [5]	inhibition [6]	inhibition [7]	inhibition [8]	inhibition [9]	inhibition [10]	inhibition [11]	inhibition [12]	inhibition [13]	inhibition [14]	Ratio [15]	inhibition [16]	inhibition [17]	inhibition [18]	inhibition [19]	Ratio [20]	also measured
COc1ccc2c(c1)CCCC21CC(=O)N(CC[Se]C#N)C1=O (stereo not drawn)	Active	inactive	inactive	Active	Active	inactive	inactive	Active	Active	inactive	inactive	Active	inactive	inactive	0.0525	Active					
COc1ccc2c(c1)CCCC21CC(=O)N(CCCC[Se]C#N)C1=O (stereo not drawn)	Active	Active	Active	Active	Active	inactive	inactive	Active	Active	Active	Active	Active	inactive	inactive	0.0487	Active	Active	Active	Active	0.0466	
COc1ccc2c(c1)CCCC21CC(=O)N(CCCCC[Se]C#N)C1=O (stereo not drawn)	Active	Active	Active	Active	Active	inactive	inactive	Active	Active	Active	Active	Active	inactive	inactive	0.047	Active	Active	Active	Active	0.0428	inhibition [21]: Active; inhibition [22]: Active
COc1ccc2c(c1)CCCC21CC(=O)N(CCC[Se]C#N)C1=O (stereo not drawn)	Active			Active	Active	inactive	inactive	Active	Active	inactive	inactive	Active	inactive	inactive	0.0483	Active				0.0474	
